Read-outs that look alike come from different tables or passages of the source.
Assays:
[1] = Cellular toxicity by [3H]-thymidine uptake; assay type: cell-based; conditions: human
Procedure: The cellular toxicity of the compounds were assessed on various cells using [^3H]-thymidine uptake. Various cells, including Molt-4, HT1080, DU-145, HepG-2 and HSF, were plated at a concentration of 1-2×10^3 cells per well (96 well plates). After a 24 hr incubation period, 10-fold serial diluted compounds (b 10^−4 M to 10^−10 M) were added to the culture medium and the cells were further incubated for 72 hrs. [^3H]-thymidine was added during the final 18 hr incubation period. After incubation with the [^3H]-thymidine, the cells were washed once with PBS, treated with trypsin if the cells were adherent, and then resuspended in water (hypotonic lysing of cells). The cellular extract was applied directly to a Tomtec Harvester 96. Using this instrument the extracted DNA is adsorbed onto filters, washed and the incorporated [^3H]-thymidine is then counted. The 50% cytotoxic concentration (CC50) was determined by comparing the radioactive counts per minute of the samples in the presence of the compounds against the control. The cellular toxicity of the compounds was also tested by WST-1 staining through assessing proliferation of MT-2, H9, Jurkat, U937, and CBMCs. The established cell lines were cultured in RPMI medium in 96-well plates at a density of 5×10^4 cells/well while CBMCs were plated at a concentration of 0.5×10^6/well. A 10-fold serial diluted (10^−4-10^−7 M) compound was added at day zero. At day 4, the cells were passaged by changing half medium containing appropriately diluted compound. The cell activities were assessed at day 7 using the WST-1 reagent (Boehringer Mannheim) following the protocol provided by the supplier.
(§1) Cellular toxicity was assessed by [^3H]thymidine uptake (de Muys et al. 1999) and WST-1 staining. In the [^3H]thymidine uptake experiments, Molt-4, HT1080, DU-145, HepG2 and HSF, were plated at a concentration of 1-2×10^3 cells per well (96 well plates). PHA-stimulated PBMCs were cultured at a concentration of 4×10^4 cells per well. Following a 24 hr pre-incubation period, test compounds (10^−4 M to 10^−10 M) were added and the cells were incubated for an additional 72 hrs. [^3H]thymidine was added during the final 18 hr incubation period. The cells were then washed once with PBS, treated with trypsin if the cells were adherent, and resuspended in water (hypotonic lysing of cells). The cellular extract was applied directly to a Tomtec Harvester 96. The 50% cytotoxic concentration (CC50) was determined by comparing the radioactive counts per minute obtained from drug-tested samples to those obtained from the control (untreated) cells.

[2] = Cellular toxicity by [3H]-thymidine uptake; assay type: cell-based, human; conditions: human, Table 14, PHA-stimulated PBMCs, read-out: CC50 (μM) [^3H]TTP incorporation in: PBMC
Procedure: as §1

[3] = test system: Zidovudine^R/Lamivudine^R (2) clinical HIV-1 isolates; assay: Clinical HIV-1 isolates (RT activity); assay type: cell-based; conditions: Human immunodeficiency virus 1, Zidovudine^R/Lamivudine^R (2 isolates)
Procedure: (§2) ANTIVIRAL ASSAYS. The anti-HIV-1 activity of the compound A (−) were assessed by employing HIV-1IIIB in a variety of cell types as previously described (Gu et al., 1992, 1994, 1999; Rando et al., 1995; Salomon et al., 1994). Briefly, cells were incubated with virus at a multiplicity of infection (MOI) of 0.005 for T cell assays and an MOI of 0.5 for monocytic cell assays for 3 hrs. Unbound virus was then removed by washing the cells, followed by seeding the cells into a 96-well plate. The infected cells were cultured in the presence of a serial concentrations of the test compound for 5-7 days. The anti-HIV-1 efficacy was determined by testing for HIV-1 RT activity or p24 level in the cell culture supernatants. All assays were performed in duplicate. Zidovudine and/or lamivudine were used as controls in each experiment.
(§3) Clinical strains were isolated from PBMCs of HIV-1 infected individuals through co-culture with PBMCs from normal dornors. To determine the RT genotype of the HIV-1 clinical isolates, the proviral DNA was extracted from infected CD4^+ T-cells or PBMCs and the complete RT coding regions were amplified by PCR as previously reported (Gu et al 1992). The PCR product was purified and then directly sequenced using primer RTS (5′-CCAAAAGTTAAACAATGGC-3′) which is located at the 5′ portion of the RT coding region (nucleotide 2603-2621 of HXB2-D coordinates). Antiviral activity was evaluated as described in example 10.

[4] = test system: Zidovudine^S/Lamivudine^S (7) clinical HIV-1 isolates; assay: Clinical HIV-1 isolates (RT activity); assay type: cell-based; conditions: Human immunodeficiency virus 1, Zidovudine^S/Lamivudine^S (7 isolates)
Procedure: as §2, §3

[5] = test system: Zidovudine^R/Lamivudine^R (3) clinical HIV-1 isolates (second group of Table 7); assay: Clinical HIV-1 isolates (RT activity); assay type: cell-based; conditions: Human immunodeficiency virus 1, Zidovudine^R/Lamivudine^R (3 isolates)
Procedure: as §2, §3

105/A (wt) = assay: Drug-resistant clinical isolates in PBMCs (p24); assay type: cell-based, HIV-1; conditions: Human immunodeficiency virus 1, PBMC
Procedure: as §2, §3

CCR19 (Lamivudine^R) = assay: Drug-resistant clinical isolates in PBMCs (p24); assay type: cell-based, HIV-1; conditions: Human immunodeficiency virus 1, PBMC
Procedure: as §2, §3

105/F (zidovudine^R) = assay: Drug-resistant clinical isolates in PBMCs (p24); assay type: cell-based, HIV-1; conditions: Human immunodeficiency virus 1, PBMC
Procedure: as §2, §3

CCR15 (Lamivudine^R) = assay: Drug-resistant clinical isolates in PBMCs (p24); assay type: cell-based, HIV-1; conditions: Human immunodeficiency virus 1, PBMC
Procedure: as §2, §3

CCR18 (Lamivudine^R) = assay: Drug-resistant clinical isolates in PBMCs (p24); assay type: cell-based, HIV-1; conditions: Human immunodeficiency virus 1, PBMC
Procedure: as §2, §3

E89G/M184V = assay: Recombinant drug resistant HIV-1 variants (RT activity); assay type: cell-based; conditions: Human immunodeficiency virus 1
Procedure: as §2
(§4) Recombinant HIV-1 variants were prepared by introducing the designed mutations into HXB2-D by site-directed mutagenesis as described (Gu et al. 1992, 1994). The virus stocks were prepared by transfecting MT-4 cells with infectious viral DNA constructs. Antiviral activity of the compound A (−) was evaluated as described in example 10.

JM4 = assay: as above; assay type: cell-based; conditions: Human immunodeficiency virus 1
Procedure: as §2, §4

M184V = assay: as above; assay type: cell-based; conditions: Human immunodeficiency virus 1
Procedure: as §2, §4

K65R/M184V = assay: as above; assay type: cell-based; conditions: Human immunodeficiency virus 1
Procedure: as §2, §4

PI^R = assay: as above; assay type: cell-based; conditions: Human immunodeficiency virus 1
Procedure: as §2, §4

[6] = read-out: EC50 (μM), mean EC50 values
[7] = read-out: EC50 (μM), ranges of EC50s of the isolates in the same group
[8] = second group (r9), read-out: EC50 (μM), mean EC50 values
[9] = second group (r10), read-out: EC50 (μM), ranges of EC50s of the isolates in the same group
[10] = Table 4, read-out: CC50 (μM) [^3H-]TTP incorporation in: HSF
[11] = Table 4, read-out: CC50 (μM) [^3H-]TTP incorporation in: Molt-4

Compound	CC50 at 72 h [2] [µM]	EC50 [3] [µM]	EC50 [4, 6] [µM]	EC50 [4, 7] [µM]	EC50 [5, 8] [µM]	EC50 [5, 9] [µM]	IC50 (105/A (wt)) [µM]	IC50 (CCR19 (Lamivudine^R)) [µM]	IC50 (105/F (zidovudine^R)) [µM]	IC50 (CCR15 (Lamivudine^R)) [µM]	IC50 (CCR18 (Lamivudine^R)) [µM]	EC50 (E89G/M184V) [µM]	EC50 (JM4) [µM]	EC50 (M184V) [µM]	EC50 (K65R/M184V) [µM]	EC50 (PI^R) [µM]	CC50 at 72 h [1, 10] [µM]	CC50 at 72 h [1, 11] [µM]	also measured
Nc1nc(NC2CC2)c2ncn([C@H]3CO[C@@H](CO)O3)c2n1 [Compound A (-), (−)-(2R,4R)-2-hydroxymethyl-4-(2′-amino-6′-cyclopropylamino-purine-9′-yl)-1,3-dioxolane]	286	0.33	0.15	0.032 to 0.31	0.38	0.13 to 0.51	0.6	1.6	0.84	0.3	1.3	0.51	0.58	0.53	1.1	0.2			CC50 at 72 h ([1]; DU-145 cells, Table 14, read-out: CC50 (μM) [^3H]TTP incorporation in: U145): > 500 µM; CC50 at 72 h ([1]; HSF cells, Table 14, read-out: CC50 (μM) [^3H]TTP incorporation in: HSF): 414 µM; CC50 at 72 h ([1]; HT1080 cells, Table 14, read-out: CC50 (μM) [^3H]TTP incorporation in: HT800): > 500 µM; CC50 at 72 h ([1]; HepG2 cells, Table 14, read-out: CC50 (μM) [^3H]TTP incorporation in: HepG2): > 500 µM; CC50 at 72 h ([1]; Molt-4 cells, Table 14, read-out: CC50 (μM) [^3H]TTP incorporation in: Molt4): > 500 µM
Nc1ccn([C@@H]2CS[C@H](CO)O2)c(=O)n1 [Lamivudine, lamivudine]	> 500	4.1	0.23	0.028 to 0.69		≥ 5.1	0.065	95	0.17	95	300	> 40	0.85	> 40	> 40	0.29	400	> 100	CC50 at 72 h ([1]; Table 14, read-out: CC50 (μM) [^3H]TTP incorporation in: HT800): > 500 µM; CC50 at 72 h ([1]; Table 14, read-out: CC50 (μM) [^3H]TTP incorporation in: HepG2): > 100 µM; CC50 at 72 h ([1]; Table 14, read-out: CC50 (μM) [^3H]TTP incorporation in: U145): > 500 µM
Cc1cn([C@H]2C[C@H](N=[N+]=[N-])[C@@H](CO)O2)c(=O)[nH]c1=O [Zidovudine, zidovudine]	9	1.15	0.021	0.0034 to 0.051	0.012	0.0026 to 0.019	0.0043	0.003	0.23	0.003	0.0042	0.022	0.27	0.02	0.031	0.017	> 10	3	CC50 at 72 h ([1]; Table 4, read-out: CC50 (μM) [^3H-]TTP incorporation in: HT1080): 5 µM; CC50 at 72 h ([1]; Table 4, read-out: CC50 (μM) [^3H-]TTP incorporation in: HepG2): 3 µM; CC50 at 72 h ([1]; Table 4, read-out: CC50 (μM) [^3H-]TTP incorporation in: U-145): > 10 µM

Reference: patent US20010049372A1, “Antiviral nucleoside analogues” (BioChem Pharma Inc., priority 1998, published 2001)
